The source made the active and inactive calls. No cut-off for these calls is given here.
What was measured:
CCRF-CEM [1] = assay: Cytoprotective activity against DEM-induced ROS production in human CEM cells treated prior DEM challenge after 16 hrs by DCFH-DA-based flow cytometry relative to alpha-tocopherol; type: functional, cell-based
CCRF-CEM [2] = assay: Cytoprotective activity against DEM-induced ROS production in human CEM cells assessed as reduction in lipid peroxidation at 2.5 to 5 uM treated prior DEM challenge measured after 16 hrs by C11-BODIPY581/591-based flow cytometry relative to alpha-tocopherol; type: functional, cell-based
CCRF-CEM [3] = assay: Cytoprotective activity against DEM-induced ROS production in human CEM cells assessed as cells with intact mitochondrial potential at 1 uM pretreated for 16 hrs prior DEM challenge measured after 120 mins by TMRM-based flow cytometry (reference value: 94%); type: functional
CCRF-CEM [4] = assay: Cytoprotective activity against DEM-induced ROS production in human CEM cells assessed as cells with intact mitochondrial potential at 2.5 uM pretreated for 16 hrs prior DEM challenge measured after 120 mins by TMRM-based flow cytometry (reference value: 94%); type: functional
CCRF-CEM [5] = assay: Cytoprotective activity against DEM-induced ROS production in human CEM cells at 1 to 5 uM pretreated for 16 hrs prior DEM challenge measured after 5.5 hrs by trypan blue exclusion method; type: functional, cell-based
CCRF-CEM [6] = assay: Cytoprotective activity against DEM-induced ROS production in human CEM cells assessed as prevention of loss of mitochondrial potential pretreated for 16 hrs prior DEM challenge measured after 120 mins by TMRM-based flow cytometry (reference value: 94%); type: functional, cell-based

Q: How did the Activity (CCRF-CEM [1]) turn out when `CCCCCCCCCCCCCCCCc1nc2c(c(C)c1O)CCN2C.O=C(O)C(F)(F)F` was run?
A: Its Activity is “Active”.

Q: And the Activity (CCRF-CEM [2])?
A: The Activity was “Active”.

Q: And the Activity (CCRF-CEM [3])?
A: The Activity was 46%.

Q: What about the Activity (CCRF-CEM [4]) of the same molecule?
A: The Activity was 70%.

Q: And the Activity (CCRF-CEM [5])?
A: Its Activity is “inactive”.

Q: What about the Activity (CCRF-CEM [6]) of the same molecule?
A: Its Activity is “Dose-dependent effect”.

Q: With `CCCCCc1nc2c(c(C)c1O)CCN2C.O=C(O)C(F)(F)F` as the molecule, how does the Activity (CCRF-CEM [1]) read?
A: The Activity was “inactive”.

Q: What about the Activity (CCRF-CEM [2]) of the same molecule?
A: Its Activity is “inactive”.

Q: What about the Activity (CCRF-CEM [3]) of the same molecule?
A: The Activity was 40%.

Q: What about the Activity (CCRF-CEM [4]) of the same molecule?
A: The Activity was 63%.

Q: What about the Activity (CCRF-CEM [5]) of the same molecule?
A: The Activity was “Active”.

Q: And the Activity (CCRF-CEM [6])?
A: Its Activity is “Dose-dependent effect”.

Q: What does the source list for `CCCCCCCCCCc1nc2c(c(C)c1OC(C)=O)CCN2C`?
A: Activity (CCRF-CEM [1]): Dose-dependent effect; Activity (CCRF-CEM [2]): Active; Activity (CCRF-CEM [3]): 75%; Activity (CCRF-CEM [4]): 82%; Activity (CCRF-CEM [5]): Active; Activity (CCRF-CEM [6]): Dose-dependent effect

Q: Which results are given for `CCCCCc1nc2c(c(C)c1OC(C)=O)CCN2C`?
A: Activity (CCRF-CEM [1]): inactive; Activity (CCRF-CEM [2]): inactive; Activity (CCRF-CEM [3]): 30%; Activity (CCRF-CEM [4]): 60%; Activity (CCRF-CEM [5]): Active; Activity (CCRF-CEM [6]): Dose-dependent effect

Q: Which Activity (CCRF-CEM [1]) does the source give for `CCCCCCCCCCc1nc2c(c(C)c1O)CCN2C.O=C(O)C(F)(F)F` here?
A: Its Activity is “Dose-dependent effect”.

Q: What about the Activity (CCRF-CEM [2]) of the same molecule?
A: The Activity was “Active”.

Q: And the Activity (CCRF-CEM [3])?
A: The Activity was 80%.

Q: And the Activity (CCRF-CEM [4])?
A: Its Activity is 84%.

Q: What about the Activity (CCRF-CEM [5]) of the same molecule?
A: Its Activity is “Active”.

Q: What about the Activity (CCRF-CEM [6]) of the same molecule?
A: Its Activity is “Dose-dependent effect”.

Q: Which Activity (CCRF-CEM [1]) does the source give for `Cc1c(C)c2c(c(C)c1O)CC[C@@](C)(CCC[C@H](C)CCC[C@H](C)CCCC(C)C)O2` here?
A: The Activity was “Active”.

Q: What about the Activity (CCRF-CEM [2]) of the same molecule?
A: Its Activity is “Active”.

Q: What about the Activity (CCRF-CEM [5]) of the same molecule?
A: Its Activity is “Active”.

Q: With `CCCCCCCCCCCCCCCCc1nc2c(c(C)c1OC(C)=O)CCN2C` as the molecule, how does the Activity (CCRF-CEM [1]) read?
A: The Activity was “Active”.

Q: And the Activity (CCRF-CEM [2])?
A: Its Activity is “Active”.

Q: And the Activity (CCRF-CEM [3])?
A: Its Activity is 50%.

Q: What about the Activity (CCRF-CEM [4]) of the same molecule?
A: The Activity was 65%.

Q: What about the Activity (CCRF-CEM [5]) of the same molecule?
A: The Activity was “Active”.

Q: What about the Activity (CCRF-CEM [6]) of the same molecule?
A: Its Activity is “Dose-dependent effect”.

Reference: ChEMBL document CHEMBL2034902, “Simplified bicyclic pyridinol analogues protect mitochondrial function” (2012)
